In patent publication US20240228469A1, “PCSK9 INHIBITORS AND METHODS OF USE THEREOF” (AstraZeneca AB, priority 2022, published 2024):

How the values were obtained:
[1] = molecular target: T1, potassium ion channel hERG (Homo sapiens, UniProt Q12809); assay: Assay 5 hERG assay (patch clamp, CHO cells over-expressing hERG); type: cell-based; conditions: SyncroPatch 384PE, room temperature, geometric mean, read-out: Assay 5 (hERG Hu CHO if EPh CR-Syncro) GMean IC50
T1 construct: expressed in transfected cells; host or cells: Chinese hamster ovary K1 (CHO)
T1 sequence (Q12809 whole entry): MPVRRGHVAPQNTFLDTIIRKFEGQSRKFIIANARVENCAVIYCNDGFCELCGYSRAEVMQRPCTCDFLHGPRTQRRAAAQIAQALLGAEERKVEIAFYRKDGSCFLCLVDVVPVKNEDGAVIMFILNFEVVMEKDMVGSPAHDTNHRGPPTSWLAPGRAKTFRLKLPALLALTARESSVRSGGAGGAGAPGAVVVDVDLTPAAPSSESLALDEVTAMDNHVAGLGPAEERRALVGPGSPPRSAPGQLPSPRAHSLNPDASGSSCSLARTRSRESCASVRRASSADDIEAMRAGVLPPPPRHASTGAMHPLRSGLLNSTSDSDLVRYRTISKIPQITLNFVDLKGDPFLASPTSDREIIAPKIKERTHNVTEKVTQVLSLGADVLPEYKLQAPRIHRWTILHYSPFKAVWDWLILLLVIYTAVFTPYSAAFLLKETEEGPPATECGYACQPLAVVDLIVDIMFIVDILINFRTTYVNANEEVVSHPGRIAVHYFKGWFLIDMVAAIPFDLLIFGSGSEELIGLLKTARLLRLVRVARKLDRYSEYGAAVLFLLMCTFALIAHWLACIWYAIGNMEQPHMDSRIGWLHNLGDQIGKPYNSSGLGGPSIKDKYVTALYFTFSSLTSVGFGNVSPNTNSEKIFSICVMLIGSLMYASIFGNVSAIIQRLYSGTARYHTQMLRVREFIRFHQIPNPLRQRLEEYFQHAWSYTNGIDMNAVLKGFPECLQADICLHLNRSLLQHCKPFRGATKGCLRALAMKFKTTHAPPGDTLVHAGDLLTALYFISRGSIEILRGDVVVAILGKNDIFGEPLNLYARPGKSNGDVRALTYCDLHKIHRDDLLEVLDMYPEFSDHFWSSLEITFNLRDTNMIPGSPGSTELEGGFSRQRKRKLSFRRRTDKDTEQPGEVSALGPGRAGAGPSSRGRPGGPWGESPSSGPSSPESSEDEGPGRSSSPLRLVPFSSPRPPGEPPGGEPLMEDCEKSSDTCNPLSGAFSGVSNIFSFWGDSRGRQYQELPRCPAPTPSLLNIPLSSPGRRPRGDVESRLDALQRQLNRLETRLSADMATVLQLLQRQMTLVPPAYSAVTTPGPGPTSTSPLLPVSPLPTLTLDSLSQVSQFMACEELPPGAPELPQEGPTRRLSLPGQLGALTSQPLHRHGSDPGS
Outline: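 hERG currents recorded by automated patch clamp at room temperature in CHO-K1 cells, 6-point cumulative concentrations. SyncroPatch runs used KF-based internal (pH 7.2) and NMDG-containing external solution (pH 7.4), 0.33% DMSO; QPatchII runs used 2% or 0.4% DMSO. Only wells meeting seal-resistance and current-size criteria kept.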

[2] = molecular target: T2, PCSK9 (Homo sapiens, UniProt Q8NBP7, G670E/V474I); assay: biochemical
T2 sequence (Q8NBP7 with tags, fused parts or gaps V474I/G670E): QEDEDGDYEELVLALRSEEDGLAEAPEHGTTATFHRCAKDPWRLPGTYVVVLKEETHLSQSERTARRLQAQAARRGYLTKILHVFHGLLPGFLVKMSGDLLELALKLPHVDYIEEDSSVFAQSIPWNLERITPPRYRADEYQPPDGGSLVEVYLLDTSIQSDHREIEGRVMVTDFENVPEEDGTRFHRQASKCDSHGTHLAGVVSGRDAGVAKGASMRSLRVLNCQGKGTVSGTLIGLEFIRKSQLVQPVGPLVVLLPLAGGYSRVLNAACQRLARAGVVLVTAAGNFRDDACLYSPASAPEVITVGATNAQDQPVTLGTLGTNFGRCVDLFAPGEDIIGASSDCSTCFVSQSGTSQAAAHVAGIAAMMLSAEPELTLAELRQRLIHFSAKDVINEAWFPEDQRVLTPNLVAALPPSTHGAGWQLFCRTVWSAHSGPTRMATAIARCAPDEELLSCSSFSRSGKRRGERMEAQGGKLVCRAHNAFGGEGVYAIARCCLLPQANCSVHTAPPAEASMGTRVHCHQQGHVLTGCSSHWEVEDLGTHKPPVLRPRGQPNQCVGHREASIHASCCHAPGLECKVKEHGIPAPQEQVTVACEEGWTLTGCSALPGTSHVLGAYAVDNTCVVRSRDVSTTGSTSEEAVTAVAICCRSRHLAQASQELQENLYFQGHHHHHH

[3] = molecular target: T2, PCSK9; assay: Assay 3 PCSK9 LDL-C uptake assay in HepG2 cells; type: cell-based; parameters: TEV site (C); His6 (C); host or cells: added to HepG2 (ATCC #HB-8065); conditions: 125 nM PCSK9, pHrodo Red-LDL, read-out: Assay 3 LDL uptake potency
Outline: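 HepG2 cells were plated for 24 h, then exposed for 24 h at 37 °C to compounds (half-log series, 10 μM top) with 125 nM exogenous PCSK9. pHrodo Red-LDL ([…]) uptake was then imaged by fluorescence at 4 h and 24 h. Signal was normalized as % effect between DMSO and 100 nM evolocumab, with a four-parameter logistic fit.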

Row | SMILES | IC50 [1] [nM] | IC50 [2] [nM] | EC50 [3] [nM]
1 | O=c1ccccn1-c1ccc(N[C@H]2CC[C@H](Nc3ncc(C4CC4)nn3)C2)nc1 [Example 50, 6′-(((1S,3S)-3-((6-Cyclopropyl-1,2,4-triazin-3-yl)amino)cyclopentyl)amino)-2H-[1,3′-bipyridin]-2-one] | > 40000 | 8 | 300
2 | O=c1c(C(F)(F)F)cccn1-c1ccc(N[C@H]2CC[C@H](Nc3ncc(C4CC4)nn3)C2)nc1 [Example 51, 6′-(((1S,3S)-3-((6-Cyclopropyl-1,2,4-triazin-3-yl)amino)cyclopentyl)amino)-3-(trifluoromethyl)-2H-[1,3′-bipyridin]-2-one] | 10800 | 1.8 | 100
3 | O=c1c(OC(F)(F)F)cccn1-c1ccc(N[C@H]2CC[C@H](Nc3ncc(C4CC4)nn3)C2)nc1 [Example 52, 6′-(((1S,3S)-3-((6-Cyclopropyl-1,2,4-triazin-3-yl)amino)cyclopentyl)amino)-3-(trifluoromethoxy)-2H-[1,3′-bipyridin]-2-one] | 39900 | 2.3 | 100
4 | O=c1c(Cl)cccn1-c1ccc(N[C@H]2CC[C@H](Nc3ncc(C4CC4)nn3)C2)nc1 [Example 55, 3-Chloro-6′-(((1S,3S)-3-((6-cyclopropyl-1,2,4-triazin-3-yl)amino)cyclopentyl)amino)-2H-[1,3′-bipyridin]-2-one] | 30300 | 1 | 100
5 | N#Cc1ccc(=O)n(-c2ccc(N[C@H]3CC[C@H](Nc4ncc(C5CC5)nn4)C3)nc2)c1 [Example 56, 6′-(((1S,3S)-3-((6-Cyclopropyl-1,2,4-triazin-3-yl)amino)cyclopentyl)amino)-2-oxo-2H-[1,3′-bipyridine]-5-carbonitrile] | 34900 | 9 | 300
6 | CN1CC(=O)N(c2ccc(N[C@H]3CC[C@H](Nc4ncc(C5CC5)nn4)C3)nc2)C1=O [Example 57, 3-(6-(((1S,3S)-3-((6-Cyclopropyl-1,2,4-triazin-3-yl)amino)cyclopentyl)amino)pyridin-3-yl)-1-methylimidazolidine-2,4-dione] | > 40000 | 11 | 500
7 | N#Cc1cccn(-c2ccc(N[C@H]3CC[C@H](Nc4ncc(C5CC5)nn4)C3)nc2)c1=O [Example 58, 6′-(((1S,3S)-3-((6-Cyclopropyl-1,2,4-triazin-3-yl)amino)cyclopentyl)amino)-2-oxo-2H-[1,3′-bipyridine]-3-carbonitrile] | > 40000 | 1.6 | 100
8 | CN1C(=O)CN(c2ccc(N[C@H]3CC[C@H](Nc4ncc(C5CC5)nn4)C3)nc2)C1=O [Example 62, 1-(6-(((1S,3S)-3-((6-Cyclopropyl-1,2,4-triazin-3-yl)amino)cyclopentyl)amino)pyridin-3-yl)-3-methylimidazolidine-2,4-dione] | 36300 | 6.5 | 300
9 | Cn1c(=O)n(-c2ccc(N[C@H]3CC[C@H](Nc4ncc(C5CC5)nn4)C3)nc2)c2ncccc21 [Example 63, 3-(6-(((1S,3S)-3-((6-Cyclopropyl-1,2,4-triazin-3-yl)amino)cyclopentyl)amino)pyridin-3-yl)-1-methyl-1,3-dihydro-2H-imidazo[4,5-b]pyridin-2-one] | > 40000 | – | 100
10 | COc1cccn(-c2ccc(N[C@H]3CC[C@H](Nc4ncc(C5CC5)nn4)C3)nc2)c1=O [Example 64, 6′-(((1S,3S)-3-((6-Cyclopropyl-1,2,4-triazin-3-yl)amino)cyclopentyl)amino)-3-methoxy-2H-[1,3′-bipyridin]-2-one] | > 40000 | 1.5 | 200
11 | COc1ccc(=O)n(-c2ccc(N[C@H]3CC[C@H](Nc4ncc(C5CC5)nn4)C3)nc2)c1 [Example 65, 6′-(((1S,3S)-3-((6-Cyclopropyl-1,2,4-triazin-3-yl)amino)cyclopentyl)amino)-5-methoxy-2H-[1,3′-bipyridin]-2-one] | 38800 | 11.8 | 500
12 | Cc1cccn(-c2ccc(N[C@H]3CC[C@H](Nc4ncc(C5CC5)nn4)C3)nc2)c1=O [Example 66, 6′-(((1S,3S)-3-((6-Cyclopropyl-1,2,4-triazin-3-yl)amino)cyclopentyl)amino)-3-methyl-2H-[1,3′-bipyridin]-2-one] | > 40000 | 1.7 | 100
13 | Cc1cnc(N[C@H]2CC[C@H](Nc3ccc(-n4ccccc4=O)cn3)C2)nn1 [Example 67, 6′-(((1S,3S)-3-((6-Methyl-1,2,4-triazin-3-yl)amino)cyclopentyl)amino)-2H-[1,3′-bipyridin]-2-one] | > 40000 | 16 | 600
14 | C#CCNC(=O)c1cnc(N[C@H]2CC[C@H](Nc3ccc(-n4ccccc4=O)cn3)C2)nn1 [Example 69, 3-(((1S,3S)-3-((2-Oxo-2H-[1,3′-bipyridin]-6′-yl)amino)cyclopentyl)amino)-N-(prop-2-yn-1-yl)-1,2,4-triazine-6-carboxamide] | > 40000 | 20 | 200
15 | O=C(NC1COC1)c1cnc(N[C@H]2CC[C@H](Nc3ccc(-n4ccccc4=O)cn3)C2)nn1 [Example 70, N-(Oxetan-3-yl)-3-(((1S,3S)-3-((2-oxo-2H-[1,3′-bipyridin]-6′-yl)amino)cyclopentyl)amino)-1,2,4-triazine-6-carboxamide] | > 40000 | 19 | 200
16 | CNC(=O)c1cnc(N[C@H]2CC[C@H](Nc3ccc(-n4ccccc4=O)cn3)C2)nn1 [Example 75, N-Methyl-3-(((1S,3S)-3-((2-oxo-2H-[1,3′-bipyridin]-6′-yl)amino)cyclopentyl)amino)-1,2,4-triazine-6-carboxamide] | > 40000 | 33 | 700
17 | O=c1ccc(Cl)cn1-c1ccc(N[C@H]2CC[C@H](Nc3ncc(C4CC4)nn3)C2)nc1 [Example 112, 5-Chloro-6′-(((1S,3S)-3-((6-cyclopropyl-1,2,4-triazin-3-yl)amino)cyclopentyl)amino)-2H-[1,3′-bipyridin]-2-one] | > 40100 | 4.7 | 200
18 | O=c1ccncn1-c1ccc(N[C@H]2CC[C@H](Nc3ncc(C4CC4)nn3)C2)nc1 [Example 114, 3-(6-(((1S,3S)-3-((6-Cyclopropyl-1,2,4-triazin-3-yl)amino)cyclopentyl)amino)pyridin-3-yl)pyrimidin-4(3H)-one] | 18600 | 7.6 | 300
19 | Cn1c(=O)n(-c2ccc(N[C@H]3CC[C@H](Nc4ncc(C5CC5)nn4)C3)nc2)c2cc(C#N)ccc21 [Example 116, 3-(6-(((1S,3S)-3-((6-Cyclopropyl-1,2,4-triazin-3-yl)amino)cyclopentyl)amino)pyridin-3-yl)-1-methyl-2-oxo-2,3-dihydro-1H-benzo[d]imidazole-5-carbonitrile] | 12000 | 0.7 | 100
20 | Cn1c(=O)n(-c2ccc(N[C@H]3CC[C@H](Nc4ncc(C5CC5)nn4)C3)nc2)c2ccc(C#N)cc21 [Example 117, 1-(6-(((1S,3S)-3-((6-Cyclopropyl-1,2,4-triazin-3-yl)amino)cyclopentyl)amino)pyridin-3-yl)-3-methyl-2-oxo-2,3-dihydro-1H-benzo[d]imidazole-5-carbonitrile] | 6300 | 1 | 300
21 | O=c1cccnn1-c1ccc(N[C@H]2CC[C@H](Nc3ncc(C4CC4)nn3)C2)nc1 [Example 118] | > 40000 | 7.4 | 500
22 | Cn1c(=O)n(-c2ccc(N[C@H]3CC[C@H](Nc4ncc(C5CC5)nn4)C3)nc2)c2ccc(C(=O)O)cc21 [Example 121, 1-(6-(((1S,3S)-3-((6-Cyclopropyl-1,2,4-triazin-3-yl)amino)cyclopentyl)amino)pyridin-3-yl)-3-methyl-2-oxo-2,3-dihydro-1H-benzo[d]imidazole-5-carboxylic acid] | > 40000 | 1 | 100
23 | Cc1cnc(N[C@H]2CC[C@H](Nc3ccc(-n4cc(C#N)ccc4=O)cn3)C2)nn1 [Example 128, 6′-(((1S,3S)-3-((6-Methyl-1,2,4-triazin-3-yl)amino)cyclopentyl)amino)-2-oxo-2H-[1,3′-bipyridine]-5-carbonitrile] | > 40000 | 20 | 800
24 | Cc1cnc(N[C@H]2CC[C@H](Nc3ccc(-n4cccc(Cl)c4=O)cn3)C2)nn1 [Example 129, 3-Chloro-6′-(((1S,3S)-3-((6-methyl-1,2,4-triazin-3-yl)amino)cyclopentyl)amino)-2H-[1,3′-bipyridin]-2-one] | > 40000 | 1.6 | 100
25 | Cc1cnc(N[C@H]2CC[C@H](Nc3ccc(-n4cccc(C)c4=O)cn3)C2)nn1 [Example 131, 3-Methyl-6′-(((1S,3S)-3-((6-methyl-1,2,4-triazin-3-yl)amino)cyclopentyl)amino)-2H-[1,3′-bipyridin]-2-one] | > 72600 | 2.7 | 100
